Test results published in article PMC12040169 (PLOS Biology, 2025).

Experiment: in vitro
Conditions: human, hela cells, % viability

Row | SMILES | viability at 28.5 h, 10 µM [%]
1 | CC(=O)Nc1ccc(OCC(O)Cn2nc(-c3ccco3)oc2=O)cc1 (stereo not shown) [CBK305615] | 97.9
2 | Cc1cccc(C(=O)Oc2ccc(C(c3c(C)n[nH]c3O)c3c(C)n[nH]c3O)cc2)c1 [CBK264804] | 102
3 | Cn1cnnc1C1CCCN(C(=O)NCc2cccc(F)c2)C1 (stereo not shown) [CBK305792] | 101
4 | CC(C)/N=C1/N[C@@H]2CS(=O)(=O)C[C@H]2O1 [CBK019692G] | 87
5 | CCOC(=O)c1nc(-c2ccccc2)sc1C(C)=O [CBK067739] | 98.8
6 | CSCCN1CCN(c2nccnc2OCCN2C(=O)CCC2=O)CC1 [CBK084301] | 105
7 | O=C(Nc1ccccc1C(=O)O)c1ccc(-c2ccc(Cl)cc2Cl)o1 [CBK078453] | 105
8 | COC1C(O)C(CO)OC1n1cc(C)c(N)nc1=O (stereo not shown) [CBK201227] | 108
9 | N#CC(/N=C/c1ccc(C#Cc2ccccc2)cc1)=C(C#N)/N=C/c1ccc(C#Cc2ccccc2)cc1 [CBK262066] | 88
10 | CC(C)C(=O)Nc1cccc(C(=O)Nc2nnc(C(F)(F)F)s2)c1 [CBK073453] | 107
11 | Brc1cccc(OCc2cccs2)c1 [CBK176011] | 99
12 | CC(C)CNC(=O)C1CCN(C(=O)c2cccc(F)c2)CC1 [CBK304338] | 112
13 | O=C(Nc1ccc(F)cc1)c1cccc(NS(=O)(=O)c2cc(Cl)sc2Cl)c1 [CBK038980] | 95.8
14 | CCN(CC)C(=O)c1sc2ncccc2c1NS(=O)(=O)c1cc(Cl)sc1Cl [CBK050615] | 92.2
15 | COc1ccc(O)c(-c2c(-c3ccc(C)cc3)n[nH]c2C)c1 [CBK287961] | 93.1
16 | CCC(Sc1nnc2c3ccccc3n(C)c2n1)C(=O)Nc1sc2c(c1C#N)CCCC2 (stereo not shown) [CBK263031] | 92.6
17 | Cc1nc(N2CCOCC2)cc(N2CCN(C(=O)C3CCCC3)CC2)n1 [CBK307602] | 87.5
18 | O=C(OCCc1ccncc1)N1CCC(F)(F)CC1 [CBK200158] | 105
19 | O=C(O)c1cc(NC(=O)C2CC2)cc(C(=O)O)c1 [CBK268564] | 94.3
20 | CC(=O)NCc1ccc(C)n1C [CBK046356] | 106
21 | CN(C)CCN(Cc1cccs1)Cc1cc(Cl)ccc1O [CBK282847] | 86.2
22 | CC(C)(C)c1cn(C[C@H]2CC3CCN2C[C@@H]3C(=O)N2CCOCC2)nn1 (stereo partly shown) [CBK288735] | 87.8

Row | SMILES | viability at 28.5 h, 10 µM [%]
23 | Cc1ccc(C2C(C(=O)c3ccc(Cl)cc3)=C(O)C(=O)N2CCCN2CCOCC2)o1 (stereo not shown) [CBK264514] | 92.6
24 | COCCC(=O)NCc1ccccc1OC1CCNC1 (stereo not shown) [CBK024504T] | 136
25 | Cn1c(CN2CCCC2)nc2cc(NC(=O)C3CCCCC3)ccc21 [CBK307418] | 98.6
26 | O=C1CC(c2cc(Br)ccc2F)c2scc(-c3ccccc3F)c2N1 (stereo not shown) [CBK294440] | 86.4
27 | CN(C)CCN1C(=O)C(O)=C(C(=O)c2ccc(S(=O)(=O)N(C)C)cc2)C1c1cccnc1 (stereo not shown) [CBK264729] | 99.7
28 | O=c1n(Cc2ccncc2)nc(C(F)(F)F)c2cccn12 [CBK283966] | 87
29 | O=C(Nc1ccc(C(F)(F)F)cc1)C1=C(O)CN(c2ccc(Cl)cc2)C1=O [CBK017603] | 84.8
30 | CC(C)CC(=O)N1CCCC(n2c(=O)oc3ccc(Cl)cc32)C1 (stereo not shown) [CBK282891] | 89.3
31 | Cc1ccc(-c2nnn(CC(=O)N(CCO)C(C(=O)NC3CCCC3)c3ccc(F)cc3)n2)o1 (stereo not shown) [CBK084756] | 89.2
32 | O=C(CC1S/C(=N/N=C/c2ccc(-c3ccc(Br)cc3)o2)NC1=O)Nc1ccccc1 (stereo not shown) [CBK264499] | 106
33 | CC(C(=O)NCCC1=CCCCC1)N1CCOC(Cn2cccn2)C1 (stereo not shown) [CBK305319] | 101
34 | Cc1nc(C)c(CNC(=O)NC2CCCN(c3ccn(C)n3)C2=O)s1 (stereo not shown) [CBK305457] | 86
35 | CCCN1CC(NS(=O)(=O)c2ccc3oc(=O)n(C)c3c2)CC1=O (stereo not shown) [CBK307664] | 92.6
36 | c1cnc(N2CCCC2)c(OCc2ccsc2)n1 [CBK115664] | 92.2
37 | Cc1ccc(NC(=O)CSc2nnc(-c3cnccn3)s2)cc1 [CBK269872] | 83.3
38 | Cn1cc(-c2ncc(OCc3ccc4c(c3)OCO4)nc2N)cn1 [CBK145168] | 105
39 | O=C(Cn1nc2n(c1=O)CCCCC2)NCC(O)c1ccc(F)cc1 (stereo not shown) [CBK305187] | 95.6
40 | N#CC1=C(SCC(=O)Nc2cccc3ccccc23)NC(=O)CC1c1ccco1 (stereo not shown) [CBK265793] | 101
41 | Cc1ccn(CCNC(=O)CSc2nccc3ccccc23)n1 [CBK282678] | 104
42 | O=C(O)c1ccc(CN2C(=O)c3ccc(C(=O)O)cc3C2=O)cc1 [CBK262823] | 93.7
43 | Cc1noc2nc(C3CCN(C(=O)C4CC4C)CC3)cc(C(F)F)c12 (stereo not shown) [CBK285307] | 93
44 | O=C(CS(=O)(=O)c1ccccc1)N1CCN2C(=O)N(C3CCCCC3)C(=O)[C@H]2C1 [CBK289580] | 89.6

Row | SMILES | viability at 28.5 h, 10 µM [%]
45 | Cc1ccn2cc(-c3ccc4c(c3)CCN4S(C)(=O)=O)cc2c1 [CBK285252] | 83.8
46 | Cc1cc(NC(=O)c2cc3ccccc3oc2=O)nc2c1c(=O)oc1ccccc12 [CBK287445] | 100
47 | CN(C)CCSc1nc2cc(Cl)ccc2o1 [CBK266337C] | 96.6
48 | COc1ccccc1OCc1ccccc1 [CBK002814] | 105
49 | Cn1ccnc1Sc1nc2ccccc2nc1C(F)(F)F [CBK093778] | 106
50 | CCCNC(=O)C(C)NC(=O)C1=Cc2ccccc2OC1 (stereo not shown) [CBK297937] | 95.2
51 | Cc1cc(OCc2nnc(SCC(=O)N3CCN(c4ccccc4)CC3)n2C)ccc1Cl [CBK268611] | 104
52 | CCNC(=O)NC[C@@H]1C=C(C)[C@H](CC(=O)N2CCOCC2)C[C@H]1C(C)C [CBK289051] | 102
53 | C=C(Br)Cn1c(COc2cccc3ccccc23)nc2ccccc21 [CBK263373] | 97.3
54 | Cc1ccc(S(=O)(=O)Nc2cc(Sc3nc(C)cc(C)n3)c(O)c3ccccc23)cc1 [CBK263313] | 79
55 | CN(C)c1nc(-c2cc(C(F)(F)F)cc(C(F)(F)F)c2)ccc1C(=O)NCc1ccco1 [CBK106094] | 89.5
56 | O=c1[nH]c(=O)n([C@@H]2O[C@H](CO)[C@H](O)C2O)cc1I (stereo partly shown) [CBK201304] | 94.6
57 | CN(CCNC(=O)Nc1ccc2c(c1)oc(=O)n2C)C1CCCC1 [CBK305503] | 95.1
58 | Cc1ccc(NS(=O)(=O)c2cc(C(=O)N3CCN(Cc4ccc5c(c4)OCO5)CC3)ccc2C)cc1 [CBK268521] | 102
59 | Cc1cc(C)n(-c2nc3ccccc3nc2N2CCN(S(=O)(=O)c3ccccc3)CC2)n1 [CBK269399] | 79.9
60 | CCS(=O)(=O)N1CC2CCCC(O)(c3ccc(F)cc3)C2C1 (stereo not shown) [CBK284363] | 80.5
61 | COc1ccc(C(=O)CSc2nnc(-c3ccc4c(c3)OCO4)n2-c2ccccc2)cc1 [CBK263592] | 80.7
62 | CS(=O)(=O)CCNC(=O)c1cnc(-c2ccc(F)cc2)c(-c2cccnc2)c1 [CBK038066] | 88
63 | O=C(CN1CCN(S(=O)(=O)c2ccc(F)cc2)CC1)Nc1cccc(C(F)(F)F)c1 [CBK071925] | 92.7
64 | CCOC(=O)c1sc(-c2ccccc2)nc1OCc1ccccc1Cl [CBK067727] | 95.8
65 | CCn1cc(Cl)c(C(=O)NC2CCN(c3cnccn3)CC2)n1 [CBK306922] | 95.5
66 | O=C(CSCc1ccccc1)Nc1ccc(O)cc1C(=O)O [CBK126817] | 103

Row | SMILES | viability at 28.5 h, 10 µM [%]
67 | CCN1CCCC1CNC(=O)c1ccc(-c2ccco2)nc1N1CCN(C(=O)c2ccco2)CC1 (stereo not shown) [CBK076206] | 90.4
68 | C=CCN1C(=O)CC2(C1=O)C(=O)N(CCCN1C(=O)c3ccccc3C1=O)c1ccc(Cl)cc12 (stereo not shown) [CBK075443] | 92.6
69 | Cc1cc(NC(=O)C2CCN(CC3CCCO3)CC2)no1 (stereo not shown) [CBK305544] | 110
70 | O=c1cc(N2CCN(CC3(O)CCNC3)CC2)c(-c2ccccc2)n[nH]1 (stereo not shown) [CBK307088] | 107
71 | Cc1cc(-c2ccc(=O)n(CCNC(=O)C3CCC3)n2)c(C)o1 [CBK284520] | 110
72 | C[C@H](NC(=O)N1CCC2(CC1)NCCc1c2[nH]c2ccc(Cl)cc12)c1ccccc1 [CBK047046] | 90
73 | COc1cc(CNCc2cccnc2)cc(Cl)c1OCc1cccs1 [CBK270026C] | 96.2
74 | O=C(Cc1cccc2ccccc12)NC(=S)Nc1ccc(S(=O)(=O)N2CCCCC2)cc1 [CBK266283] | 106
75 | Cc1cc(=O)oc2cc(NC(=S)NNC(=O)C(C)Sc3nc4ccccc4s3)ccc12 (stereo not shown) [CBK267056] | 102
76 | CCCC(=O)N[C@@H](C)Cn1c(C(F)(F)F)cc2cccnc21 [CBK283232] | 92.7
77 | CCC(CC)C(=O)Nc1nc(OC)cnc1-c1cccc(C(=O)N(C)C)c1 [CBK145392] | 98.5
78 | Cn1c(C(=O)OCC(=O)NC(C)(C)C)cc2occc21 [CBK284015] | 109
79 | CCCCc1cc(=O)oc2cc(OCC(=O)O)ccc12 [CBK264205] | 99.4
80 | CC(C)C[C@H](NC(=O)OC(C)(C)C)C(=O)NC[C@H]1CC[C@H](C(=O)O)CC1 [CBK286750] | 85.9
81 | COc1cc(-c2cnc(N)c(N3CCC[C@@H]3CO)n2)cc(OC)c1OC [CBK063478] | 101
82 | NS(=O)(=O)c1ccc(N2N=C(c3ccccc3)CC2c2ccccc2)cc1 (stereo not shown) [CBK261511] | 95.9
83 | Cc1c(C(=O)Nc2ccc(S(=O)(=O)N(C)Cc3ccccc3)cc2)cccc1[N+](=O)[O-] [CBK267534] | 109
84 | CCCCCc1nnc(Nc2nc(C)cc(C)n2)[nH]1 [CBK288155] | 95.4
85 | CC1CCN(CC(=O)NC2CCN(C(C)c3ccccc3)CC2)CC1 (stereo not shown) [CBK284017] | 101
86 | CCc1nn(CCC(C)O)c(=O)c2cc3sc(C)cc3n12 (stereo not shown) [CBK282869] | 89.1
87 | CC(C)Oc1ncc(C(=O)NCCCC(=O)O)cc1Cl [CBK305192] | 107
88 | COC1C(O)C(CO)OC1n1cc(I)c(=O)[nH]c1=O (stereo not shown) [CBK201211] | 95.1
